According to the NIST ThermoML archive (doi:10.1016/j.jct.2015.07.042):
± gives the expanded uncertainty stated by the source.

Test: activity coefficient (dimensionless); of the first substance listed, at infinite dilution; xn = mol fraction of the nth substance listed
Settings: 101 kPa, Liquid, Chromatography, x1 = 0

## Cc1ccccc1C [1,2-dimethylbenzene] + CCCCn1cc[n+](C)c1.COP(=O)([O-])OC
358.15 K
  activity coefficient: 5.54 ± 0.38
368.15 K
  activity coefficient: 5.7 ± 0.39
378.15 K
  activity coefficient: 5.79 ± 0.39
388.15 K
  activity coefficient: 6.03 ± 0.41

## Cc1ccccc1C [1,2-dimethylbenzene] + CCCCn1cc[n+](C)c1.CS(=O)(=O)[O-]
358.15 K
  activity coefficient: 7.64 ± 0.52
368.15 K
  activity coefficient: 7.79 ± 0.53
378.15 K
  activity coefficient: 7.99 ± 0.54
388.15 K
  activity coefficient: 8.21 ± 0.56

## Cc1ccccc1C [1,2-dimethylbenzene] + CCCCn1cc[n+](C)c1.[Cl-]
358.15 K
  activity coefficient: 11.6 ± 0.79
368.15 K
  activity coefficient: 11.7 ± 0.8
378.15 K
  activity coefficient: 11.9 ± 0.81
388.15 K
  activity coefficient: 12.3 ± 0.84

## Cc1cccc(C)c1 [1,3-dimethylbenzene] + CCCCn1cc[n+](C)c1.COP(=O)([O-])OC
358.15 K
  activity coefficient: 6.49 ± 0.44
368.15 K
  activity coefficient: 6.6 ± 0.45
378.15 K
  activity coefficient: 6.73 ± 0.46
388.15 K
  activity coefficient: 7 ± 0.48

## Cc1cccc(C)c1 [1,3-dimethylbenzene] + CCCCn1cc[n+](C)c1.CS(=O)(=O)[O-]
358.15 K
  activity coefficient: 9.27 ± 0.63
368.15 K
  activity coefficient: 9.43 ± 0.64
378.15 K
  activity coefficient: 9.57 ± 0.65
388.15 K
  activity coefficient: 9.92 ± 0.68

## Cc1cccc(C)c1 [1,3-dimethylbenzene] + CCCCn1cc[n+](C)c1.[Cl-]
358.15 K
  activity coefficient: 14.3 ± 0.98
368.15 K
  activity coefficient: 14.5 ± 0.99
378.15 K
  activity coefficient: 14.7 ± 1
388.15 K
  activity coefficient: 15 ± 1

## Cc1ccc(C)cc1 [1,4-dimethylbenzene] + CCCCn1cc[n+](C)c1.COP(=O)([O-])OC
358.15 K
  activity coefficient: 6.31 ± 0.43
368.15 K
  activity coefficient: 6.44 ± 0.44
378.15 K
  activity coefficient: 6.59 ± 0.45
388.15 K
  activity coefficient: 6.86 ± 0.47

## Cc1ccc(C)cc1 [1,4-dimethylbenzene] + CCCCn1cc[n+](C)c1.CS(=O)(=O)[O-]
358.15 K
  activity coefficient: 9.03 ± 0.62
368.15 K
  activity coefficient: 9.2 ± 0.63
378.15 K
  activity coefficient: 9.37 ± 0.64
388.15 K
  activity coefficient: 9.71 ± 0.66

## Cc1ccc(C)cc1 [1,4-dimethylbenzene] + CCCCn1cc[n+](C)c1.[Cl-]
358.15 K
  activity coefficient: 13.6 ± 0.93
368.15 K
  activity coefficient: 13.7 ± 0.94
378.15 K
  activity coefficient: 14 ± 0.96
388.15 K
  activity coefficient: 14.3 ± 0.98

## C1COCCO1 [1,4-dioxane] + CCCCn1cc[n+](C)c1.COP(=O)([O-])OC
358.15 K
  activity coefficient: 2.13 ± 0.14
368.15 K
  activity coefficient: 2.19 ± 0.15
378.15 K
  activity coefficient: 2.25 ± 0.15
388.15 K
  activity coefficient: 2.37 ± 0.16

## C1COCCO1 [1,4-dioxane] + CCCCn1cc[n+](C)c1.CS(=O)(=O)[O-]
358.15 K
  activity coefficient: 2.33 ± 0.16
368.15 K
  activity coefficient: 2.41 ± 0.16
378.15 K
  activity coefficient: 2.49 ± 0.17
388.15 K
  activity coefficient: 2.62 ± 0.18

## C1COCCO1 [1,4-dioxane] + CCCCn1cc[n+](C)c1.[Cl-]
358.15 K
  activity coefficient: 3.47 ± 0.24
368.15 K
  activity coefficient: 3.55 ± 0.24
378.15 K
  activity coefficient: 3.65 ± 0.25
388.15 K
  activity coefficient: 3.74 ± 0.25

## C=CCCCCCCCC [1-decene] + CCCCn1cc[n+](C)c1.COP(=O)([O-])OC
358.15 K
  activity coefficient: 53.5 ± 3.7
368.15 K
  activity coefficient: 52.2 ± 3.6
378.15 K
  activity coefficient: 50.4 ± 3.5
388.15 K
  activity coefficient: 49.2 ± 3.4

## C=CCCCCCCCC [1-decene] + CCCCn1cc[n+](C)c1.CS(=O)(=O)[O-]
358.15 K
  activity coefficient: 193 ± 13
368.15 K
  activity coefficient: 187 ± 13
378.15 K
  activity coefficient: 182 ± 12
388.15 K
  activity coefficient: 179 ± 12

## C=CCCCCCCCC [1-decene] + CCCCn1cc[n+](C)c1.[Cl-]
358.15 K
  activity coefficient: 323 ± 22
368.15 K
  activity coefficient: 306 ± 21
378.15 K
  activity coefficient: 285 ± 20
388.15 K
  activity coefficient: 277 ± 19

## C=CCCCCC [1-heptene] + CCCCn1cc[n+](C)c1.COP(=O)([O-])OC
358.15 K
  activity coefficient: 19.6 ± 1.3
368.15 K
  activity coefficient: 19.4 ± 1.3
378.15 K
  activity coefficient: 19.1 ± 1.3
388.15 K
  activity coefficient: 18.9 ± 1.3

## C=CCCCCC [1-heptene] + CCCCn1cc[n+](C)c1.CS(=O)(=O)[O-]
358.15 K
  activity coefficient: 59.2 ± 4.1
368.15 K
  activity coefficient: 58.9 ± 4
378.15 K
  activity coefficient: 58.7 ± 4
388.15 K
  activity coefficient: 58 ± 4

## C=CCCCCC [1-heptene] + CCCCn1cc[n+](C)c1.[Cl-]
358.15 K
  activity coefficient: 88.9 ± 6.1
368.15 K
  activity coefficient: 83.8 ± 5.7
378.15 K
  activity coefficient: 79.3 ± 5.4
388.15 K
  activity coefficient: 77.2 ± 5.3

## C#CCCCCC [1-heptyne] + CCCCn1cc[n+](C)c1.COP(=O)([O-])OC
358.15 K
  activity coefficient: 4.21 ± 0.29
368.15 K
  activity coefficient: 4.48 ± 0.31
378.15 K
  activity coefficient: 4.7 ± 0.32
388.15 K
  activity coefficient: 4.93 ± 0.34

## C#CCCCCC [1-heptyne] + CCCCn1cc[n+](C)c1.CS(=O)(=O)[O-]
358.15 K
  activity coefficient: 12 ± 0.82
368.15 K
  activity coefficient: 12.6 ± 0.86
378.15 K
  activity coefficient: 13.3 ± 0.91
388.15 K
  activity coefficient: 14.1 ± 0.96

## C#CCCCCC [1-heptyne] + CCCCn1cc[n+](C)c1.[Cl-]
358.15 K
  activity coefficient: 11.6 ± 0.79
368.15 K
  activity coefficient: 12.3 ± 0.84
378.15 K
  activity coefficient: 12.7 ± 0.87
388.15 K
  activity coefficient: 13.3 ± 0.91

## C#CCCCC [1-hexyne] + CCCCn1cc[n+](C)c1.COP(=O)([O-])OC
358.15 K
  activity coefficient: 3.01 ± 0.2
368.15 K
  activity coefficient: 3.22 ± 0.22
378.15 K
  activity coefficient: 3.39 ± 0.23
388.15 K
  activity coefficient: 3.57 ± 0.24
